Assay results as given in PubChem BioAssay AID256 (DTP/NCI, 2004).
Several values for one entry are separate records, joined by “and”; a condition that tells them apart may be missing. Identical values can stand only once. Inconclusive results and toxic doses are left out.

System: CD2F1 mice, L1210 leukemia ip, survival T/C
Assay: NCI In Vivo Anticancer Drug Screen. Data for tumor model L1210 Leukemia (intraperitoneal) in CD2F1 (CDF1) mice
Conditions: higher = longer survival
Method in brief: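 Activity against a transplanted murine tumor was judged by comparing the compound group with a vehicle group. The outcome in the treated animals was divided by that in the controls.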

Which results are given for `NCCCN=c1ccc2c3c1c(O)c1c(O)ccc(=O)c1c3[nH]n2CCNCCO`?
T/C (endpoint: median survival time, dose: 0.28 mg/kg/injection, schedule: Q03HX008 (ip), vehicle: saline): 162 % of control; T/C (endpoint: median survival time, dose: 0.38 mg/kg/injection, schedule: Q03HX024 (ip), vehicle: saline): 174 % of control; T/C (endpoint: median survival time, dose: 0.45 mg/kg/injection, schedule: Q01DX005 (ip), vehicle: saline): 174 % of control; T/C (endpoint: median survival time, dose: 0.5 mg/kg/injection, schedule: Q01DX009 (ip), vehicle: saline): 241 % of control; T/C (endpoint: median survival time, dose: 0.56 mg/kg/injection, schedule: Q03HX008 (ip), vehicle: saline): 174 % of control; T/C (endpoint: median survival time, dose: 0.75 mg/kg/injection, schedule: Q03HX024 (ip), vehicle: saline): 329 % of control; T/C (endpoint: median survival time, dose: 0.75 mg/kg/injection, schedule: Q04DX003 (ip), vehicle: saline): 231 % of control; T/C (endpoint: median survival time, dose: 0.9 mg/kg/injection, schedule: Q01DX005 (ip), vehicle: saline): 198 % of control; T/C (endpoint: median survival time, dose: 0.9 mg/kg/injection, schedule: Q01DX005 (iv), vehicle: saline): 114 % of control; T/C (endpoint: median survival time, dose: 1.0 mg/kg/injection, schedule: Q01DX009 (ip), vehicle: saline): 217 % of control; T/C (endpoint: median survival time, dose: 1.13 mg/kg/injection, schedule: Q03HX008 (ip), vehicle: saline): 731 % of control; T/C (endpoint: median survival time, dose: 1.5 mg/kg/injection, schedule: Q03HX024 (ip), vehicle: saline): 731 % of control; T/C (endpoint: median survival time, dose: 1.5 mg/kg/injection, schedule: Q04DX003 (ip), vehicle: saline): 186 % of control; T/C (endpoint: median survival time, dose: 1.8 mg/kg/injection, schedule: Q01DX005 (ip), vehicle: saline): 219 % of control; T/C (endpoint: median survival time, dose: 2.0 mg/kg/injection, schedule: Q01DX009 (ip), vehicle: saline): 186 % of control; T/C (endpoint: median survival time, dose: 2.0 mg/kg/injection, schedule: Q01DX009 (ip), vehicle: water): 170 % of control and 365 % of control; T/C (endpoint: median survival time, dose: 2.2 mg/kg/injection, schedule: Q01DX001 (iv), vehicle: water): 103 % of control and 111 % of control; T/C (endpoint: median survival time, dose: 2.25 mg/kg/injection, schedule: Q01DX001 (iv), vehicle: saline): 117 % of control; T/C (endpoint: median survival time, dose: 2.25 mg/kg/injection, schedule: Q03HX008 (ip), vehicle: saline): 280 % of control; T/C (endpoint: median survival time, dose: 3.0 mg/kg/injection, schedule: Q03HX024 (ip), vehicle: saline): 731 % of control; T/C (endpoint: median survival time, dose: 3.0 mg/kg/injection, schedule: Q04DX003 (ip), vehicle: saline): 207 % of control; T/C (endpoint: median survival time, dose: 3.6 mg/kg/injection, schedule: Q01DX005 (ip), vehicle: saline): 426 % of control; T/C (endpoint: median survival time, dose: 3.6 mg/kg/injection, schedule: Q01DX005 (iv), vehicle: saline): 158 % of control; T/C (endpoint: median survival time, dose: 4.0 mg/kg/injection, schedule: Q01DX009 (ip), vehicle: saline): 219 % of control; T/C (endpoint: median survival time, dose: 4.0 mg/kg/injection, schedule: Q01DX009 (ip), vehicle: water): 183 % of control and 192 % of control and 292 % of control; T/C (endpoint: median survival time, dose: 4.5 mg/kg/injection, schedule: Q01DX001 (ip), vehicle: saline): 207 % of control; T/C (endpoint: median survival time, dose: 4.5 mg/kg/injection, schedule: Q01DX001 (ip), vehicle: water): 164 % of control; T/C (endpoint: median survival time, dose: 4.5 mg/kg/injection, schedule: Q01DX001 (iv), vehicle: saline): 123 % of control; T/C (endpoint: median survival time, dose: 4.5 mg/kg/injection, schedule: Q01DX001 (iv), vehicle: water): 108 % of control and 112 % of control; T/C (endpoint: median survival time, dose: 4.5 mg/kg/injection, schedule: Q03HX008 (ip), vehicle: saline): 731 % of control; T/C (endpoint: median survival time, dose: 6.0 mg/kg/injection, schedule: Q03HX024 (ip), vehicle: saline): 731 % of control; T/C (endpoint: median survival time, dose: 6.0 mg/kg/injection, schedule: Q04DX003 (ip), vehicle: saline): 243 % of control; T/C (endpoint: median survival time, dose: 7.2 mg/kg/injection, schedule: Q01DX005 (ip), vehicle: saline): 731 % of control; T/C (endpoint: median survival time, dose: 7.2 mg/kg/injection, schedule: Q01DX005 (iv), vehicle: saline): 187 % of control; T/C (endpoint: median survival time, dose: 8.0 mg/kg/injection, schedule: Q01DX009 (ip), vehicle: saline): 329 % of control; T/C (endpoint: median survival time, dose: 8.0 mg/kg/injection, schedule: Q01DX009 (ip), vehicle: water): 213 % of control and 268 % of control and 333 % of control; T/C (endpoint: median survival time, dose: 8.0 mg/kg/injection, schedule: Q01DX009 (oral), vehicle: saline): 104 % of control; T/C (endpoint: median survival time, dose: 9.0 mg/kg/injection, schedule: Q01DX001 (ip), vehicle: saline): 231 % of control; T/C (endpoint: median survival time, dose: 9.0 mg/kg/injection, schedule: Q01DX001 (ip), vehicle: water): 158 % of control and 183 % of control; T/C (endpoint: median survival time, dose: 9.0 mg/kg/injection, schedule: Q03HX008 (ip), vehicle: saline): 731 % of control; T/C (endpoint: median survival time, dose: 12.0 mg/kg/injection, schedule: Q03HX024 (ip), vehicle: saline): 107 % of control; T/C (endpoint: median survival time, dose: 12.0 mg/kg/injection, schedule: Q04DX003 (ip), vehicle: saline): 731 % of control; T/C (endpoint: median survival time, dose: 14.4 mg/kg/injection, schedule: Q01DX005 (ip), vehicle: saline): 731 % of control; T/C (endpoint: median survival time, dose: 16.0 mg/kg/injection, schedule: Q01DX009 (ip), vehicle: saline): 280 % of control; T/C (endpoint: median survival time, dose: 16.0 mg/kg/injection, schedule: Q01DX009 (ip), vehicle: water): 196 % of control and 337 % of control and 365 % of control; T/C (endpoint: median survival time, dose: 16.0 mg/kg/injection, schedule: Q01DX009 (oral), vehicle: saline): 101 % of control; T/C (endpoint: median survival time, dose: 18.0 mg/kg/injection, schedule: Q01DX001 (ip), vehicle: saline): 268 % of control; T/C (endpoint: median survival time, dose: 18.0 mg/kg/injection, schedule: Q01DX001 (ip), vehicle: water): 216 % of control and 666 % of control; T/C (endpoint: median survival time, dose: 18.0 mg/kg/injection, schedule: Q01DX001 (iv), vehicle: saline): 162 % of control; T/C (endpoint: median survival time, dose: 18.0 mg/kg/injection, schedule: Q03HX008 (ip), vehicle: saline): 365 % of control; T/C (endpoint: median survival time, dose: 24.0 mg/kg/injection, schedule: Q04DX003 (ip), vehicle: saline): 731 % of control; T/C (endpoint: median survival time, dose: 28.8 mg/kg/injection, schedule: Q01DX005 (ip), vehicle: saline): 731 % of control; T/C (endpoint: median survival time, dose: 28.8 mg/kg/injection, schedule: Q01DX005 (iv), vehicle: saline): 104 % of control; T/C (endpoint: median survival time, dose: 32.0 mg/kg/injection, schedule: Q01DX009 (ip), vehicle: saline): 113 % of control; T/C (endpoint: median survival time, dose: 32.0 mg/kg/injection, schedule: Q01DX009 (ip), vehicle: water): 114 % of control and 119 % of control and 88 % of control; T/C (endpoint: median survival time, dose: 32.0 mg/kg/injection, schedule: Q01DX009 (oral), vehicle: saline): 107 % of control; T/C (endpoint: median survival time, dose: 36.0 mg/kg/injection, schedule: Q01DX001 (ip), vehicle: saline): 731 % of control; T/C (endpoint: median survival time, dose: 36.0 mg/kg/injection, schedule: Q01DX001 (ip), vehicle: water): 208 % of control and 466 % of control; T/C (endpoint: median survival time, dose: 36.0 mg/kg/injection, schedule: Q01DX001 (iv), vehicle: saline): 192 % of control; T/C (endpoint: median survival time, dose: 36.0 mg/kg/injection, schedule: Q01DX001 (iv), vehicle: water): 152 % of control; T/C (endpoint: median survival time, dose: 48.0 mg/kg/injection, schedule: Q04DX003 (ip), vehicle: saline): 731 % of control; T/C (endpoint: median survival time, dose: 64.0 mg/kg/injection, schedule: Q01DX009 (ip), vehicle: saline): 90 % of control; T/C (endpoint: median survival time, dose: 64.0 mg/kg/injection, schedule: Q01DX009 (oral), vehicle: saline): 101 % of control; T/C (endpoint: median survival time, dose: 72.0 mg/kg/injection, schedule: Q01DX001 (ip), vehicle: saline): 731 % of control; T/C (endpoint: median survival time, dose: 72.0 mg/kg/injection, schedule: Q01DX001 (ip), vehicle: water): 666 % of control; T/C (endpoint: median survival time, dose: 96.0 mg/kg/injection, schedule: Q04DX003 (ip), vehicle: saline): 219 % of control; T/C (endpoint: median survival time, dose: 128.0 mg/kg/injection, schedule: Q01DX009 (oral), vehicle: saline): 102 % of control; T/C (endpoint: median survival time, dose: 144.0 mg/kg/injection, schedule: Q01DX001 (ip), vehicle: saline): 731 % of control; T/C (endpoint: median survival time, dose: 144.0 mg/kg/injection, schedule: Q01DX001 (ip), vehicle: water): 666 % of control

Which T/C (endpoint: mean survival time, dose: 100.0 mg/kg/injection, schedule: Q01DX001 (ip), vehicle: saline) does the source give for `CCN(CC)CCN=Cc1c(O)c(O)c(C(C)C)c2cc(C)c(-c3c(C)cc4c(C(C)C)c(O)c(O)c(C=NCCN(CC)CC)c4c3O)c(O)c12` here?
The T/C was 90 % of control.

What about the T/C (endpoint: mean survival time, dose: 200.0 mg/kg/injection, schedule: Q01DX001 (ip), vehicle: saline) of the same molecule?
Its T/C is 90 % of control.

And the T/C (endpoint: mean survival time, dose: 400.0 mg/kg/injection, schedule: Q01DX001 (ip), vehicle: saline)?
The T/C was 93 % of control.

How did the T/C (endpoint: mean survival time, dose: 75.0 mg/kg/injection, schedule: Q01DX001 (ip), vehicle: saline) turn out when `COc1csn[n+]1-c1ccc(C)cc1` was run?
Its T/C is 104 % of control.

With `Nc1ccccc1Sc1ccc2c3c(cccc13)C(=O)N(c1ccccc1)C2=O` as the molecule, how does the T/C (endpoint: mean survival time, dose: 25.0 mg/kg/injection, schedule: Q04DX002 (ip), vehicle: saline with Tween-80) read?
Its T/C is 95 % of control.

And the T/C (endpoint: mean survival time, dose: 50.0 mg/kg/injection, schedule: Q04DX002 (ip), vehicle: saline with Tween-80)?
Its T/C is 98 % of control.

What about the T/C (endpoint: mean survival time, dose: 100.0 mg/kg/injection, schedule: Q04DX002 (ip), vehicle: saline with Tween-80) of the same molecule?
Its T/C is 87 % of control.

Which T/C (endpoint: median survival time, dose: 6.25 mg/kg/injection, schedule: Q01DX009 (ip), vehicle: water) does the source give for `COc1cccc2c1C(=O)c1c(O)c3c(c(O)c1C2=O)C[C@@](O)(C(O)CO)C[C@@H]3OC1CC(N(Cc2ccccc2)Cc2ccccc2)C(O)C(C)O1` (stereo partly specified) here?
The T/C was 122 % of control.

For `O=C(NC(Cc1ccc(I)cc1)C(=O)O)c1ccc(Br)cc1` (stereo unspecified), which T/C (endpoint: median survival time, dose: 25.0 mg/kg/injection, schedule: Q01DX009 (ip), vehicle: sodium bicarbonate) is on record?
Its T/C is 98 % of control.

And the T/C (endpoint: median survival time, dose: 50.0 mg/kg/injection, schedule: Q01DX009 (ip), vehicle: sodium bicarbonate)?
Its T/C is 101 % of control.

What about the T/C (endpoint: median survival time, dose: 100.0 mg/kg/injection, schedule: Q01DX009 (ip), vehicle: sodium bicarbonate) of the same molecule?
The T/C was 101 % of control.

What about the T/C (endpoint: median survival time, dose: 200.0 mg/kg/injection, schedule: Q01DX009 (ip), vehicle: sodium bicarbonate) of the same molecule?
Its T/C is 96 % of control.
